System: various established weeds including Carolina False Dandelion, Hop Clover, White Clover, Annual Sedge, and Smooth Crabgrass
Assay: Field study of post-emergence weed control (overall percent weed control of combined weed species) in established Kentucky Tall Fescue
Format: in vivo
Settings: for efficacy of all weeds: eight days after treatment
Experimental: Field studies were conducted on a mixed stand of established Kentucky Tall Fescue containing various established weeds including but not limited to Carolina False Dandelion, Hop Clover, White Clover, Annual Sedge, and Smooth Crabgrass in Selma, N.C. The trial location was mowed weekly at a mowing height of three inches. The distribution of weeds was uniform throughout the study.
Individual treatment plots were applied on a 1×3 meter squared plot area. The experimental design was a randomized complete block with three replications. The applications were made with a carbon dioxide backpack sprayer equipped with 11003 nozzles with a spray pressure of 40 psi calibrated to deliver approximately 40 gallons per acre spray volume. All applications were applied on a single day. The wind speed was less than 10 mph at time of application.
Data were collected at 2, 4, 8, 13, 23 and 30 days after application of treatments, respectively. Data were collected as an estimate of overall percent weed control (efficacy) of combined weed species taking into consideration necrosis, chlorosis, and stunting of each weed species. The data were analyzed in ARM using the ANOVA and preforming the Duncan's New MRT test at P=0.05 (indicated by “a,” “b,” “c,”, etc.).
Glufosinate used in this trial was Surmise (2.34 lb/gal.) marketed by Albaugh LLC. Pelargonic Acid used in this trial was Beloukha Garden Herbicide (4.21 lb/gal.) marketed by Belchim Crop Protection USA.
The total percent weed control was calculated by comparing the individual treated plots and assessing individual weeds.

## CP(=O)(O)CCC(N)C(=O)O (stereo not shown) [Glufosinate, 2-amino-4-[hydroxy(methyl)phosphoryl]butanoic acid]
0.5 fluid oz/gal, 2 days after treatment
  Percent Control: 0.0b %
0.5 fluid oz/gal, 4 days after treatment
  Percent Control: 20.0c %
0.5 fluid oz/gal, 8 days after treatment
  Percent Control: 85.0ab %
0.5 fluid oz/gal, 13 days after treatment
  Percent Control: 90.0b %
0.5 fluid oz/gal, 23 days after treatment
  Percent Control: 85.2b %
0.5 fluid oz/gal, 30 days after treatment
  Percent Control: 83.6b %
1.0 fluid oz/gal, 2 days after treatment
  Percent Control: 0.0b %
1.0 fluid oz/gal, 4 days after treatment
  Percent Control: 15.0cd %
1.0 fluid oz/gal, 8 days after treatment
  Percent Control: 91.0a %
1.0 fluid oz/gal, 13 days after treatment
  Percent Control: 90.7b %
1.0 fluid oz/gal, 23 days after treatment
  Percent Control: 90.4b %
1.0 fluid oz/gal, 30 days after treatment
  Percent Control: 95.0a %
2.0 fluid oz/gal, 2 days after treatment
  Percent Control: 0.0b %
2.0 fluid oz/gal, 4 days after treatment
  Percent Control: 15.0cd %
2.0 fluid oz/gal, 8 days after treatment
  Percent Control: 94.3a %
2.0 fluid oz/gal, 13 days after treatment
  Percent Control: 98.0a %
2.0 fluid oz/gal, 23 days after treatment
  Percent Control: 99.1a %
2.0 fluid oz/gal, 30 days after treatment
  Percent Control: 97.1a %
All glufosinate treatments at all dose rates
  efficacy of all weeds: 85 to 94%
Glufosinate alone, all dose rates, 23 days after treatment
  control of all weeds (efficacy): 85 to 99%

## CCCCCCCCC(=O)O [Pelargonic Acid, nonanoic acid]
3.2 fluid oz/gal, 2 days after treatment
  Percent Control: 6.7b %
3.2 fluid oz/gal, 4 days after treatment
  Percent Control: 20.0c %
3.2 fluid oz/gal, 8 days after treatment
  Percent Control: 40.0c %
3.2 fluid oz/gal, 13 days after treatment
  Percent Control: 22.2d %
3.2 fluid oz/gal, 23 days after treatment
  Percent Control: 20.0d %
3.2 fluid oz/gal, 30 days after treatment
  Percent Control: 20.0c %
6.4 fluid oz/gal, 2 days after treatment
  Percent Control: 40.0a %
6.4 fluid oz/gal, 2 days after treatment, listed as pelargonic acid
  Percent Control: 40%
6.4 fluid oz/gal, 4 days after treatment
  Percent Control: 50.0b %
6.4 fluid oz/gal, 8 days after treatment
  Percent Control: 73.3b %
6.4 fluid oz/gal, 13 days after treatment
  Percent Control: 66.7c %
6.4 fluid oz/gal, 23 days after treatment
  Percent Control: 40.0c %
6.4 fluid oz/gal, 30 days after treatment
  Percent Control: 23.2c %
Pelargonic acid alone, both dose rates
  efficacy of all weeds: 40% to 73

Reference: patent US20220000106A1, “HERBICIDAL COMPOSITIONS AND RELATED METHODS” (BELCHIM Crop Protection USA LLC, priority 2020, published 2022)
